# Measured values reported in US12251422B2, “Compositions and methods for treating neurological and other disorders” (Rush University Medical Center, priority 2018, dated 2025).
# What was measured:
# 5×FAD Tg mice = assay: Barnes maze and T maze in 5×FAD Tg mice; assay type: in vivo, mouse
# Description: FIG. 6 (A-N). Intranasal delivery of wtTIDM, but not mTIDM, peptide inhibits neuronal apoptosis in vivo in the hippocampus and improves memory and learning in Tg mice. […] After 30 d of treatment, mice were sacrificed and hippocampal sections were double-labeled for TUNEL & NeuN (A). […] Hippocampal extracts of all groups of mice (n=4) were immunoblotted for cleaved caspase 3 (D). Actin was run as loading control. E) Bands were scanned and values (cleaved caspase 3/Actin) are presented as relative to non-Tg control. […] Protein levels of PSD-95. NR2A and GluR1 were monitored in hippocampal extracts by Western blot (F). Bands were scanned and values (G, PSD-95/Actin; H, NR2A/Actin; I, GluR1/Actin) are presented as relative to non-Tg control. […] Mice were tested for Barnes maze (J, latency; K, number of errors made) and T maze (L, number of positive turns; M, number of negative turns). Short-term memory was also monitored by novel object recognition test, which is represented by discrimination index (N). Eight mice (n=8) were used in each group and results were analyzed by one-way ANOVA.
# Maze experiments were performed as described by us (52, 57). Briefly, for Barnes maze, mice were trained for 2 consecutive days followed by examination on day 3. […]
# NF-κB = NF-κB activation by EMSA in primary Tlr2−/− microglia; assay type: cell-based, mouse; conditions: peptide 1 h, 1 μM fibrillar Aβ1-42 for 1 h
# Protocol: FIG. 16 (A-F). […] Primary microglia isolated from WT (A) and TLR2 (−/−) (B) mice were treated with different concentrations of wtTIDM peptide for 1 h followed by stimulation with 1 μM fibrillar Aβ1-42 under serum-free condition. After 1 h of stimulation, the activation of NF-κB was monitored by EMSA. WT (C & D) and TLR2 (−/−) (E & F) microglia were treated with different concentrations of wtTIDM and mTIDM peptides for 1 h followed by stimulation with 1 μM fibrillar Aβ1-42 under serum-free condition. After 18 h of stimulation, levels of TNFα (C & E) and IL-1β (D & F) were monitored in supernatants by ELISA (n=2 replicates/condition in 3 independent experiments). ap<0.001 vs control; bp<0.001 vs stimuli by two-sample t-tests.
# Nuclear extracts were isolated and EMSA was carried out as described before (22, 23).
# IL-1β and iNOS = assay: mRNA expression of IL-1β and iNOS in BV-2 microglial cells (RT-PCR, real-time PCR); assay type: cell-based; conditions: 10 μM peptide 1 h
# Protocol: FIG. 4(A-S). Effect of wtTIDM and mTIDM peptides on the induction of NF-κB activation and the expression of proinflammatory molecules in microglial cells. BV-2 microglial cells preincubated with 10 μM wtTIDM/mTIDM peptides for 1 h were stimulated with 1 μM fibrillar Aβ1-42 (A-C), 1 μM MPP+ (D-F), 250 ng/ml LTA (G-I), […] LPS (J-L), 1 μM flagellin (M-O), and 1 μM CpG DNA (P-R) under serum-free condition. After 1 h of stimulation, the activation of NF-κB was monitored in nuclear extracts by EMSA (A, fibrillar Aβ; D, MPP+; G, LTA; J, LPS; M, flagellin, P; CpG DNA). After 4 h of stimulation, the mRNA expression of IL-1β (B, E, H, K, N, & Q) and iNOS (C, F, I, L, O, & R) was monitored by real-time PCR (B-C, fibrillar Aβ; E-F, MPP+; H-I, LTA; K-L, LPS; N-O, flagellin; Q-R, CpG DNA) (n=2 replicates/dose in 3 independent experiments). ap<0.001 vs control; bp<0.001 vs stimuli by two-sample t-tests. […]
# FIG. 13 (A-F). […] After 4 h of stimulation, the mRNA expression of IL-1β and iNOS was monitored by RT-PCR (n=2 replicates/condition in 3 independent experiments).
# FIG. 14 (A-D). […] A) After 1 h of stimulation, the activation of NF-κB was monitored in nuclear extracts by EMSA. […]
# DNase-digested RNA was analyzed by real-time PCR in the AβI-Prism7700 sequence detection system (Applied Biosystems, Foster City, CA) as described earlier (23, 57).
compound,measurement,setting,value
"CC[C@H](C)[C@H](NC(=O)[C@H](CCCCN)NC(=O)[C@@H](NC(=O)[C@H](CCC(N)=O)NC(=O)[C@H](CCCNC(=N)N)NC(=O)[C@@H](N)CC(=O)O)[C@@H](C)CC)C(=O)N[C@@H](Cc1c[nH]c2ccccc12)C(=O)N[C@@H](Cc1ccccc1)C(=O)N[C@@H](CCC(N)=O)C(=O)N[C@@H](CC(N)=O)C(=O)N[C@@H](CCCNC(=N)N)C(=O)N[C@@H](CCCNC(=N)N)C(=O)N[C@@H](CCSC)C(=O)N[C@@H](CCCCN)C(=O)N[C@@H](Cc1c[nH]c2ccccc12)C(=O)N[C@@H](CCCCN)C(=O)N[C@@H](CCCCN)C(=O)N1CCC[C@H]1C(=O)NCC(=O)N[C@@H](C)C(=O)N[C@@H](Cc1c[nH]cn1)C(=O)N[C@@H](CCC(N)=O)C(=O)N[C@@H](CCCCN)C(=O)O [wtTIDM, drqikiwfqnrrmkwkkPGAHQK]","memory functions in Barnes maze (latency, number of errors)","5×FAD Tg mice; 0.1 mg/kg body wt/2 d intranasal, 30 d",significantly improved
same,spatial learning and memory in Tg mice,5×FAD Tg mice; summary statement,improved
same,inhibition of fibrillar Aβ1-42-induced activation of NF-κB in Tlr2−/− microglia,NF-κB,remained unable to inhibit
same,"inhibition of expression of proinflammatory molecules (IL-1β, iNOS) induced by LTA",IL-1β and iNOS; 250 ng/ml LTA for 4 h,inhibited
same,"inhibition of expression of proinflammatory molecules (IL-1β, iNOS) induced by fibrillar Aβ",IL-1β and iNOS; 1 μM fibrillar Aβ1-42 for 4 h,inhibited
